ChEMBL document CHEMBL1126639, “Centrally acting serotonergic and dopaminergic agents. 2. Synthesis and structure-activity relationships of 2,3,3a,4,9,9a-hexahydro-1H-benz[f]indole derivatives” (J Med Chem, 1993)

Columns and labels:
Mus musculus [1] = assay: Ability to stimulate dopaminergic systems by effect on locomotor activity in reserpinized mice when a dose of 0.4 micro mol/kg is administered intraperitoneally; format: functional
Mus musculus [2] = assay: Antagonism of apomorphine for 0-10 minutes in reserpinized mice when a dose of 0.4 micro mol/kg is administered intraperitoneally; format: functional
Mus musculus [3] = assay: Antagonism of apomorphine for 0-10 minutes in reserpinized mice when a dose of 36 micro mol/kg is administered intraperitoneally; format: functional
Mus musculus [4] = assay: Ability to stimulate dopaminergic systems by effect on locomotor activity in reserpinized mice when a dose of 36 micro mol/kg is administered intraperitoneally; format: functional
Mus musculus [5] = assay: Ability to stimulate dopaminergic systems by effect on locomotor activity in reserpinized mice when a dose of 3.6 micro mol/kg is administered intraperitoneally; format: functional
Mus musculus [6] = assay: Antagonism of apomorphine for 10-20 minutes in reserpinized mice when a dose of 3.6 micro mol/kg is administered intraperitoneally; format: functional
Mus musculus [7] = assay: Antagonism of apomorphine in reserpinized mice when a dose of 0.4 micro mol/kg is administered intraperitoneally; format: functional
D(2) dopamine receptor [8] = molecular target: T1, D(2) dopamine receptor (Rattus norvegicus, UniProt P61169); assay: Inhibitory concentration against [3H]raclopride-labeled dopamine receptor D2 in rat striatum; format: tissue-based
T1 sequence (P61169 whole entry): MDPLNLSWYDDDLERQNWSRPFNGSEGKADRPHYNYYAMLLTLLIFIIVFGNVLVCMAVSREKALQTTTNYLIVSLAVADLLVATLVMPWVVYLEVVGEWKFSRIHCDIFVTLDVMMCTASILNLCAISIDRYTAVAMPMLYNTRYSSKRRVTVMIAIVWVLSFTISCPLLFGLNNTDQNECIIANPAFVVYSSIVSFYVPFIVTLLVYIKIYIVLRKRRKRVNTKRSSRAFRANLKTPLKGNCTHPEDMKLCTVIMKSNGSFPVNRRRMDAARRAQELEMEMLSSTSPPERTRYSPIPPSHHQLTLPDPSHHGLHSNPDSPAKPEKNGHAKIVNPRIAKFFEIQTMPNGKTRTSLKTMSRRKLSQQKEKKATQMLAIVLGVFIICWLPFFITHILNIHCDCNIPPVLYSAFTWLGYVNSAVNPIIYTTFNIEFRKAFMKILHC

Mus musculus [9] = assay: Antagonism of apomorphine in reserpinized mice when a dose of 3.6 micro mol/kg is administered intraperitoneally; format: functional
Mus musculus [10] = assay: Antagonism of apomorphine for 10-20 minutes in reserpinized mice when a dose of 0.4 micro mol/kg is administered intraperitoneally; format: functional
Mus musculus [11] = assay: Antagonism of apomorphine for 10-20 minutes in reserpinized mice when a dose of 36 micro mol/kg is administered intraperitoneally; format: functional
Mus musculus [12] = assay: Antagonism of apomorphine for 0-10 minutes in reserpinized mice when a dose of 3.6 micro mol/kg is administered intraperitoneally; format: functional
D(2) dopamine receptor [13] = molecular target: T2, D(2) dopamine receptor (Homo sapiens, UniProt P14416); assay: Binding affinity against [3H]U-86,170-labeled dopamine receptor D2 in cloned CHO cells; format: cell-based
T2 sequence (P14416 whole entry): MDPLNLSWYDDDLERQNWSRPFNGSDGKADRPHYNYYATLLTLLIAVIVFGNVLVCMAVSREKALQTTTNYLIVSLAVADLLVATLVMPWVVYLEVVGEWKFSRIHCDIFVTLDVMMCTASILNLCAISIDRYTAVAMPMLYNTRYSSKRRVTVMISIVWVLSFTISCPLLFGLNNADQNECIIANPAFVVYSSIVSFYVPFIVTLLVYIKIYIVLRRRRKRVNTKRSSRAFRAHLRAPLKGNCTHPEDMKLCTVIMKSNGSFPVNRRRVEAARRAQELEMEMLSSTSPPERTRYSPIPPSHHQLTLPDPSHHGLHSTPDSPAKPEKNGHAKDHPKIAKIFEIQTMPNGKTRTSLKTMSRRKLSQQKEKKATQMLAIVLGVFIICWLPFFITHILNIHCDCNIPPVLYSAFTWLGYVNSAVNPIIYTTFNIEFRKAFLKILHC

Mus musculus [14] = assay: Antagonism of apomorphine in reserpinized mice when a dose of 36 micro mol/kg is administered intraperitoneally; format: functional
Mus musculus [15] = assay: Antagonism of apomorphine for 10-20 minutes in reserpinized mice when a dose of 37 micro mol/kg is administered intraperitoneally; format: functional
Mus musculus [16] = assay: Antagonism of apomorphine in reserpinized mice when a dose of 37 micro mol/kg is administered intraperitoneally; format: functional
Mus musculus [17] = assay: Antagonism of apomorphine for 0-10 minutes in reserpinized mice when a dose of 3.7 micro mol/kg is administered intraperitoneally; format: functional
Mus musculus [18] = assay: Ability to stimulate dopaminergic systems by effect on locomotor activity in reserpinized mice when a dose of 37 micro mol/kg is administered intraperitoneally; format: functional
D(2) dopamine receptor [19] = molecular target: T2, D(2) dopamine receptor; assay: Intrinsic activity from GTP shift using CHO cell membranes expressing dopamine receptor D2; format: functional
Mus musculus [20] = assay: Antagonism of apomorphine for 0-10 minutes in reserpinized mice when a dose of 37 micro mol/kg is administered intraperitoneally; format: functional
D(2) dopamine receptor [21] = molecular target: T1, D(2) dopamine receptor; assay: Binding affinity for [3H]raclopride-labeled dopamine receptor D2 in rat striatum; format: tissue-based
Mus musculus [22] = assay: Ability to stimulate dopaminergic systems by effect on locomotor activity in reserpinized mice when a dose of 3.7 micro mol/kg is administered intraperitoneally; format: functional
Mus musculus [23] = assay: Antagonism of apomorphine in reserpinized mice when a dose of 3.7 micro mol/kg is administered intraperitoneally; format: functional
Rattus norvegicus [24] = assay: Inhibition of firing rates of dopaminergic neurons in the substantia nigra pars compacta by intravenous injection in rats.; format: functional
Mus musculus [25] = assay: Antagonism of apomorphine for 10-20 minutes in reserpinized mice when a dose of 3.7 micro mol/kg is administered intraperitoneally; format: functional
Rattus norvegicus [26] = assay: Effect on the synthesis rates of dopamine (DOPA accumulation) in the rat ventral limbic brain region at 43.2 uM/kg.; format: functional, Limbic system
Mus musculus [27] = assay: Ability to stimulate dopaminergic systems by effect on locomotor activity in reserpinized mice when a dose of 4.3 micro mol/kg is administered intraperitoneally; format: functional
Mus musculus [28] = assay: Antagonism of apomorphine in reserpinized mice when a dose of 43 micro mol/kg is administered intraperitoneally; format: functional
Mus musculus [29] = assay: Antagonism of apomorphine for 10-20 minutes in reserpinized mice when a dose of 43 micro mol/kg is administered intraperitoneally; format: functional
Rattus norvegicus [30] = assay: Effect on the synthesis rates of serotonin (5-HTP accumulation) in the rat ventral limbic brain region 43.2 umol/kg.; format: functional, Limbic system
Mus musculus [31] = assay: Antagonism of apomorphine for 0-10 minutes in reserpinized mice when a dose of 43 micro mol/kg is administered intraperitoneally; format: functional
Rattus norvegicus [32] = assay: Inhibition of firing rates of dopaminergic neurons in the substantia nigra pars compacta by intravenous injection in rats; format: functional
Mus musculus [33] = assay: Ability to stimulate dopaminergic systems by effect on locomotor activity in reserpinized mice when a dose of 43 micro mol/kg is administered intraperitoneally; format: functional
Mus musculus [34] = assay: Antagonism of apomorphine for 0-10 minutes in reserpinized mice when a dose of 4.3 micro mol/kg is administered intraperitoneally; format: functional
Mus musculus [35] = assay: Antagonism of apomorphine in reserpinized mice when a dose of 4.3 micro mol/kg is administered intraperitoneally; format: functional
Mus musculus [36] = assay: Antagonism of apomorphine for 10-20 minutes in reserpinized mice when a dose of 4.3 micro mol/kg is administered intraperitoneally; format: functional
Mus musculus [37] = assay: Antagonism of apomorphine in reserpinized mice when a dose of 3.8 micro mol/kg is administered intraperitoneally; format: functional
Mus musculus [38] = assay: Antagonism of apomorphine for 0-10 minutes in reserpinized mice when a dose of 3.8 micro mol/kg is administered intraperitoneally; format: functional
Mus musculus [39] = assay: Antagonism of apomorphine for 0-10 minutes in reserpinized mice when a dose of 38 micro mol/kg is administered intraperitoneally; format: functional
Rattus norvegicus [40] = assay: Inhibition of firing rates of serotonergic neurons in the dorsal raphe nucleus by intravenous injection in rats; format: functional; details: Rattus norvegicus, Dorsal raphe nucleus, iv; read-out: ED50
Mus musculus [41] = assay: Antagonism of apomorphine in reserpinized mice when a dose of 38 micro mol/kg is administered intraperitoneally; format: functional
Mus musculus [42] = assay: Ability to stimulate dopaminergic systems by effect on locomotor activity in reserpinized mice when a dose of 38 micro mol/kg is administered intraperitoneally; format: functional
Mus musculus [43] = assay: Antagonism of apomorphine for 10-20 minutes in reserpinized mice when a dose of 38 micro mol/kg is administered intraperitoneally; format: functional
Mus musculus [44] = assay: Antagonism of apomorphine for 10-20 minutes in reserpinized mice when a dose of 3.8 micro mol/kg is administered intraperitoneally; format: functional
Mus musculus [45] = assay: Ability to stimulate dopaminergic systems by effect on locomotor activity in reserpinized mice when a dose of 3.8 micro mol/kg is administered intraperitoneally; format: functional
D(2) dopamine receptor [46] = molecular target: T1, D(2) dopamine receptor; assay: Inhibitory concentration against [3H]raclopride-labeled dopamine receptor D2 in rat striatum was estimated from single point experiment. compound was run at 1 uM

CCCN1CC[C@@H]2Cc3c(cccc3OC)C[C@H]21
Locomotor activity (Mus musculus [1]): 581
Locomotor activity (Mus musculus [2]): 20
Locomotor activity (Mus musculus [3]): 21
Locomotor activity (Mus musculus [4]): 308
Locomotor activity (Mus musculus [5]): 851
Locomotor activity (Mus musculus [6]): 12
Locomotor activity (Mus musculus [7]): 86
IC50 (D(2) dopamine receptor [8]): > 1000 nM
Locomotor activity (Mus musculus [9]): 72
Locomotor activity (Mus musculus [10]): 30
Locomotor activity (Mus musculus [11]): 20
Locomotor activity (Mus musculus [12]): 18
Ki (D(2) dopamine receptor [13]): 75 nM
Locomotor activity (Mus musculus [14]): 14

C=CCN1CC[C@H]2Cc3c(O)cccc3C[C@@H]21
Locomotor activity (Mus musculus [1]): 45
Locomotor activity (Mus musculus [15]): 103
Locomotor activity (Mus musculus [16]): 77
Locomotor activity (Mus musculus [2]): 121
Locomotor activity (Mus musculus [17]): 109
Locomotor activity (Mus musculus [18]): 113
Intrinsic activity (D(2) dopamine receptor [19]): 21%
Locomotor activity (Mus musculus [20]): 84
Ki (D(2) dopamine receptor [21]): 47 nM
Locomotor activity (Mus musculus [22]): 1
Locomotor activity (Mus musculus [7]): 81
Locomotor activity (Mus musculus [23]): 86
Locomotor activity (Mus musculus [10]): 119
Ki (D(2) dopamine receptor [13]): 235 nM
ED50 (Rattus norvegicus [24]): 0.94 µmol/kg
Locomotor activity (Mus musculus [25]): 119

CCCN1CC[C@H]2Cc3c(cccc3OC)C[C@@H]21
IC50 (D(2) dopamine receptor [8]): > 1000 nM

CCCN1CC[C@@H]2Cc3c(O)cccc3C[C@H]21 (racemic)
Locomotor activity (Mus musculus [1]): 423
Control (Rattus norvegicus [26]): -47%
Locomotor activity (Mus musculus [27]): 912
Locomotor activity (Mus musculus [2]): 41
Locomotor activity (Mus musculus [28]): 114
Locomotor activity (Mus musculus [29]): 23
Control (Rattus norvegicus [30]): -4%
Locomotor activity (Mus musculus [31]): 29
ED50 (Rattus norvegicus [32]): 0.003 µmol/kg
Ki (D(2) dopamine receptor [21]): 17 nM
Locomotor activity (Mus musculus [33]): 1539
Locomotor activity (Mus musculus [7]): 98
Locomotor activity (Mus musculus [34]): 46
Locomotor activity (Mus musculus [10]): 71
Locomotor activity (Mus musculus [35]): 69
Ki (D(2) dopamine receptor [13]): 2.4 nM
Locomotor activity (Mus musculus [36]): 38

C=CCN1CC[C@@H]2Cc3c(cccc3OC)C[C@@H]21 (racemic)
Ki (D(2) dopamine receptor [21]): 429 nM

C=CCN1CC[C@@H]2Cc3c(O)cccc3C[C@H]21 (racemic)
Locomotor activity (Mus musculus [1]): 450
Locomotor activity (Mus musculus [37]): 133
Locomotor activity (Mus musculus [2]): 61
Locomotor activity (Mus musculus [38]): 40
Locomotor activity (Mus musculus [39]): 55
ED50 (Rattus norvegicus [32]): 0.007 µmol/kg
ED50 (Rattus norvegicus [40]): 0.35 µmol/kg
Ki (D(2) dopamine receptor [21]): 47 nM
Locomotor activity (Mus musculus [7]): 108
Locomotor activity (Mus musculus [41]): 123
Locomotor activity (Mus musculus [42]): 1783
Locomotor activity (Mus musculus [10]): 77
Locomotor activity (Mus musculus [43]): 46
Ki (D(2) dopamine receptor [13]): 235 nM
Locomotor activity (Mus musculus [44]): 54
Locomotor activity (Mus musculus [45]): 1409

C=CCN1CC[C@@H]2Cc3cccc(OC)c3C[C@@H]21 (racemic)
IC50 (D(2) dopamine receptor [46]): > 1000 nM

CCCN1CC[C@@H]2Cc3c(cccc3OC)C[C@@H]21 (racemic)
IC50 (D(2) dopamine receptor [8]): > 1000 nM

CCCN1[C@H](C)C[C@@H]2Cc3cccc(OC)c3C[C@@H]21 (racemic)
IC50 (D(2) dopamine receptor [8]): > 1000 nM

C=CCN1CC[C@@H]2Cc3cccc(OC)c3C[C@H]21 (racemic)
IC50 (D(2) dopamine receptor [8]): > 1000 nM

Oc1cccc2c1C[C@H]1CCN(CC3CC3)[C@@H]1C2 (racemic)
Locomotor activity (Mus musculus [1]): 1
Locomotor activity (Mus musculus [2]): 83
Intrinsic activity (D(2) dopamine receptor [19]): 73%
Locomotor activity (Mus musculus [3]): 25
Locomotor activity (Mus musculus [4]): 1033
Locomotor activity (Mus musculus [5]): 539
Ki (D(2) dopamine receptor [21]): 118 nM
Locomotor activity (Mus musculus [6]): 60
Locomotor activity (Mus musculus [7]): 129
Locomotor activity (Mus musculus [9]): 163
Locomotor activity (Mus musculus [10]): 88
Locomotor activity (Mus musculus [11]): 49
Locomotor activity (Mus musculus [12]): 31
Locomotor activity (Mus musculus [14]): 117
